Measurements: US20200206198A1, “CFTR CHANNEL ACTIVATOR FOR USE IN THE TREATMENT AND/OR PREVENTION OF GLUTEN SENSITIVITY CONDITIONS” (priority 2017, published 2020)

Target: T1, CFTR (Homo sapiens, UniProt P13569)
T1 construct: Immunoprecipitations of endogenous proteins were performed on 500 μg of lysates from Caco-2 cells; host or cells: Caco-2, T84
Assay: CFTR channel function in intestinal epithelial cells (forskolin-induced Isc in Ussing chambers; SPQ iodide efflux)
Format: cell-based
Procedure: Human colon adenocarcinoma-derived Caco-2 and T84 cells (Barone, M. V. et al. 2014; Luciani, A. et al. 2010) were obtained from the ATCC. Cells were maintained in T25 flask in Modified Eagle Medium (MEM) for Caco-2, or Ham's F12+DMEM (1:1) for T84, supplemented with 10% fetal bovine serum (FBS), 2 mM Glutamine+1% Non Essential Amino Acids (NEAA) and the antibiotics penicillin\streptomycin (100 units/ml) (all reagents from Lonza). Caco-2 cells were grown in Transwells (Corning, 3470 or 3460) under the normal condition. Briefly, 8×10^4 or 5×10^5 cells were seeded in 6.5-mm diameter or 12-mm diameter, respectively, and grown until the RT reached 800 to 1,200 Ω·cm^2. Transwells with a pore size of 0.4 μm were used. Medium in both the apical and baso lateral chambers was changed every other day. Cells were treated with 20 μg/ml of either with the α-gliadin peptide comprising the P31-43 amino acid sequence of α-gliadin LGQQQPFPPQQPY (SEQ ID 1) (below referred to as P31-43), which is known to induce an enterocyte stress response (Meresse, B. et al.2009; Barone, M. V. et al. 2014; Luciani, A. et al. 2010), the T-cell activating α-gliadin peptide comprising the P57-68 amino acid sequence of α-gliadin (QLQPFPQPQLPY SEQ ID 2)) (below referred to as P57-68) (Maiuri, L., et al. 2003; Meresse, B. et al.2009; 30 Barone, M. V. et al. 2014), or the scrambled GAVAAVGVVAGA (SEQ ID 3) control peptide (below referred to as PGAV), or with different modified P31-43, either biotin-tagged or not, for different time points (from 1 h short challenge up to 24 h). Cells were also treated with 50 or 100 5 μg/ml of P57-68 or PGAV peptides for 3 h.
Caco-2 or T84 cells were also treated with: CFTR potentiators VX-770 (Ivacaftor) (10 μM) or VX-532 (20 μM) (Selleck chemicals) or Genistein (10 μM) (Verkman, A. S. et al. 2005; Jih, K. Y. et al. 2013) (Sigma-Aldrich) or in presence or absence of CFTR inhibitor172 (CFTRinh172, 20 μM).
Human colon adenocarcinoma-derived Caco-2 and T84 cells were obtained from the ATCC. Cells were maintained in T25 flask in Modified Eagle Medium (MEM) for Caco-2, or Ham's F12+DMEM (1:1) for T84, supplemented with 10% fetal bovine serum (FBS), 2 mM Glutamine+1% Non Essential Amino Acids (NEAA) and the antibiotics penicillin\streptomycin (100 units/ml) (all reagents from Lonza) (Luciani, A., et al. 2010. Cells were grown in Transwells (Corning, 3470 or 3460) under the normal condition (Luciani, A., et al. 2012). Briefly, 8×10^4 or 5×10^5 cells were seeded in 6.5-mm diameter or 12-mm diameter, respectively, and grown until the RT reached 800 to 1,200 Ω·cm2. Transwells with a pore size of 0.4 μm were used. Medium in both the apical and basolateral chambers was changed every other day. […]

T1 sequence (P13569 whole entry): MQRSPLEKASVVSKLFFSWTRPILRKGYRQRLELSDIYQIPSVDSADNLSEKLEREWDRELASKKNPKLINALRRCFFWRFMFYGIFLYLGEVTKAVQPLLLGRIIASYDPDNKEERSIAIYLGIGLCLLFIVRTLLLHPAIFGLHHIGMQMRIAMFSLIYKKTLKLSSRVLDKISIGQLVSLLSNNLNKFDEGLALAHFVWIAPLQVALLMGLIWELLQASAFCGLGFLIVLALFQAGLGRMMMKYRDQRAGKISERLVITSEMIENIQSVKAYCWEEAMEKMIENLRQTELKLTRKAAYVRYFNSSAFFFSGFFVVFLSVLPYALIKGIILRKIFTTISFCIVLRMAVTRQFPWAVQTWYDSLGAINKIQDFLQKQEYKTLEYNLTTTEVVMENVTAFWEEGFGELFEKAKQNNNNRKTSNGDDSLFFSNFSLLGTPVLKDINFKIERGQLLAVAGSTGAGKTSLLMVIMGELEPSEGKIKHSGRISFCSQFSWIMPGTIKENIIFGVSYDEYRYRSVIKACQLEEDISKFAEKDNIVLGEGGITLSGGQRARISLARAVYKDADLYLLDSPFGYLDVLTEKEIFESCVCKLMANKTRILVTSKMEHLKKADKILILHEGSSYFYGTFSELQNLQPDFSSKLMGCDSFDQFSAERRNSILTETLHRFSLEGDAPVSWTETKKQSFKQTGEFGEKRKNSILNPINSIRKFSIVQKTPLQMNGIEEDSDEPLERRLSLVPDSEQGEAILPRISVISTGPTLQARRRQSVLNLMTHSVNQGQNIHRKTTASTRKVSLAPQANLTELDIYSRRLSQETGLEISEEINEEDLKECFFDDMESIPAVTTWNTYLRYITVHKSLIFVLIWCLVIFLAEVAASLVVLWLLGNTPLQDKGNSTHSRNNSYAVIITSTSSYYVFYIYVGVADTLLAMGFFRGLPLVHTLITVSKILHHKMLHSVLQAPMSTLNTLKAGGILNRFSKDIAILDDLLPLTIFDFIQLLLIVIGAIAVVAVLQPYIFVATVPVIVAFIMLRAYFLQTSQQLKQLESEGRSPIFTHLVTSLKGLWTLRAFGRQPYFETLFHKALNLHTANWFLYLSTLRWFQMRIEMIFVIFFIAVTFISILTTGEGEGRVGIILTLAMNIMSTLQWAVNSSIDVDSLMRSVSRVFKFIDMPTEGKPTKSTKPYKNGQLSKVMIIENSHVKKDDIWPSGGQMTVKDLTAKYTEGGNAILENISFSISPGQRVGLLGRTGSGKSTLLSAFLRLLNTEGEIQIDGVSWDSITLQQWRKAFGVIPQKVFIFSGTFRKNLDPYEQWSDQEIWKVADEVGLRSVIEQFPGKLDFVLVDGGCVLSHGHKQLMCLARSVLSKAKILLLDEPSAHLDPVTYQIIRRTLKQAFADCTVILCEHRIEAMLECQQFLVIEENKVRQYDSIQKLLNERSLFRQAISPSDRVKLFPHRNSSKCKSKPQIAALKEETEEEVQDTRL

| Compound | prevention of P31-43 induced decrease of CFTR function (VX-770 10 μM, VX-532 20 μM, Genistein 10 μM, Caco-2 or T84 cells) | reduction of CFTR channel function in response to forskolin (20 μg/ml peptide, intestinal epithelial cells (Caco-2, T84)) |
| --- | --- | --- |
| CC(C)(C)c1cc(C(C)(C)C)c(NC(=O)c2c[nH]c3ccccc3c2=O)cc1O [VX-770, N-(2,4-di-tert-butyl-5-hydroxyphenyl)-4-oxo-1,4-dihydroquinoline-3-carboxamide] | Prevents P31-43 Induced Inhibition of CFTR Function |  |
| α-gliadin peptide LGQQQPFPPQQPY (SEQ ID 1), induces an enterocyte stress response (P31-43 sequence of alpha-gliadin) |  | did reduce CFTR channel function |
